Usually IC50 stands for the point on the concentration scale where inhibition reaches its midpoint. For orientation: inhibition means the relative decrease from the control value, in per cent.

SMILES strings stand for the structures. “And” between values parts separate entries of the source, which are not always exact repeats. Equal values may be shown once. “Also recorded” adds a separate entry of the source.

The subject of the first assay is MCF-7 human breast cancer cell line. The assay is described as follows: Alamar Blue assay for antiproliferative effects. The class given is cell-based. Particulars: Homo sapiens, MCF7, 72 h, MCF-7, 72 h, Alamar Blue; read-out: IC50 (μM), antiproliferative effects. Background: Resazurin is reduced to fluorescent resorufin, in cell work by metabolically active cells.
On to `CCC(=C(c1ccc(O)cc1)c1ccc(OCCN(C)C(=O)/C(=C/c2cc(OC)c(OC)c(OC)c2)c2cc(OC)cc(OC)c2)cc1)c1ccccc1` (mixture of isomers) [Compound 3b, (E/Z)-2-(3,5-Dimethoxyphenyl)-N-(2-(4-((Z)-1-(4-hydroxyphenyl)-2-phenylbut-1-en-1-yl)phenoxy)ethyl)-N-methyl-3-(3,4,5-trimethoxyphenyl)acrylamide], for which the IC50 is above 50 µM.

For the compound `CCC(=C(c1ccc(O)cc1)c1ccc(OCCN(C)C(=O)/C(=C/c2cc(OC)c(OC)c(OC)c2)c2cc(OC)c(OC)c(OC)c2)cc1)c1ccccc1` (mixture of isomers) [Compound 3c, (E/Z)-N-(2-(4-((Z)-1-(4-Hydroxyphenyl)-2-phenylbut-1-en-1-yl)phenoxy)ethyl)-N-methyl-2,3-bis(3,4,5-trimethoxyphenyl)acrylamide], the 50% inhibitory concentration (IC50) is above 50 µM.

For the compound `CCC(=C(c1ccc(O)cc1)c1ccc(OCCN(C)C(=O)/C(=C/c2ccc(OC)c(O)c2)c2cc(OC)cc(OC)c2)cc1)c1ccccc1` (mixture of isomers) [Compound 3d, (E/Z)-2-(3,5-Dimethoxyphenyl)-3-(3-hydroxy-4-methoxyphenyl)-N-(2-(4-((Z)-1-(4-hydroxyphenyl)-2-phenylbut-1-en-1-yl)phenoxy)ethyl)-N-methylacrylamide], the IC50 was above 50 µM.

As for `CCC(=C(c1ccc(O)cc1)c1ccc(OCCN(C)C(=O)/C(=C/c2ccc(O)c(O)c2)c2cc(OC)c(OC)c(OC)c2)cc1)c1ccccc1` (mixture of isomers) [Compound 3e, (E/Z)-3-(3,4-Dihydroxyphenyl)-N-(2-(4-((Z)-1-(4-hydroxyphenyl)-2-phenylbut-1-en-1-yl)phenoxy)ethyl)-N-methyl-2-(3,4,5-trimethoxyphenyl)acrylamide], the concentration for half-maximal inhibition (IC50) is above 50 µM.

Consider `CCC(=C(c1ccc(O)cc1)c1ccc(OCCN(C)C(=O)/C(=C/c2cccc(O)c2)c2cc(OC)c(OC)c(OC)c2)cc1)c1ccccc1` (mixture of isomers) [Compound 3f, (E/Z)-3-(3-Hydroxyphenyl)-N-(2-(4-((Z)-1-(4-hydroxyphenyl)-2-phenylbut-1-en-1-yl)phenoxy)ethyl)-N-methyl-2-(3,4,5-trimethoxyphenyl)acrylamide], for which the IC50 was above 50 µM.

Regarding `CCC(=C(c1ccc(O)cc1)c1ccc(OCCN(C)C(=O)/C(=C/c2ccc(OC)c(OC)c2)c2cc(OC)c(OC)c(OC)c2)cc1)c1ccccc1` (mixture of isomers) [Compound 3g, (E/Z)-3-(3,4-Dimethoxyphenyl)-N-(2-(4-((Z)-1-(4-hydroxyphenyl)-2-phenylbut-1-en-1-yl)phenoxy)ethyl)-N-methyl-2-(3,4,5-trimethoxyphenyl)acrylamide], the IC50 was above 50 µM.

Consider `CCC(=C(c1ccc(O)cc1)c1ccc(OCCN(C)C(=O)/C(=C/c2ccc(OC)c(OC)c2OC)c2cc(OC)c(OC)c(OC)c2)cc1)c1ccccc1` (mixture of isomers) [Compound 3h, (E/Z)-N-(2-(4-((Z)-1-(4-Hydroxyphenyl)-2-phenylbut-1-en-1-yl)phenoxy)ethyl)-N-methyl-3-(2,3,4-tri-methoxyphenyl)-2-(3,4,5-trimethoxyphenyl)acrylamide], for which the IC50 is above 50 µM.

Turning to `CCC(=C(c1ccc(O)cc1)c1ccc(OCCN(C)C(=O)/C(=C/c2cc(OC)c(O)c(OC)c2)c2cc(OC)c(OC)c(OC)c2)cc1)c1ccccc1` (mixture of isomers) [Compound 3j, (E/Z)-3-(4-Hydroxy-3,5-dimethoxyphenyl)-N-(2-(4-((Z)-1-(4-hydroxyphenyl)-2-phenylbut-1-en-1-yl)-phenoxy)ethyl)-N-methyl-2-(3,4,5-trimethoxyphenyl)acrylamide], the IC50 is 11.8 µM.

Take `CCC(=C(c1ccc(O)cc1)c1ccc(OCCN(C)C(=O)/C(=C/c2ccc(C)s2)c2cc(OC)c(OC)c(OC)c2)cc1)c1ccccc1` (mixture of isomers) [Compound 3l, (E/Z)-N-(2-(4-((E)-1-(4-Hydroxyphenyl)-2-phenylbut-1-en-1-yl)phenoxy)ethyl)-N-methyl-3-(5-methyl-thiophen-2-yl)-2-(3,4,5-trimethoxyphenyl)acrylamide]: the IC50 is above 50 µM.

For `CCC(=C(c1ccc(O)cc1)c1ccc(OCCN(C)C(=O)/C=C/c2cc(OC)c(OC)c(OC)c2)cc1)c1ccccc1` (mixture of isomers) [Compound 5c, (E/Z)-N-(2-(4-((Z)-1-(4-Hydroxyphenyl)-2-phenylbut-1-en-1-yl)phenoxy)ethyl)-N-methyl-3-(3,4,5-tri-methoxyphenyl)acrylamide], the IC50 is above 100 µM.

On to `CCC(=C(c1ccc(O)cc1)c1ccc(OCCN(C)C(=O)CCc2cc(OC)c(OC)c(OC)c2)cc1)c1ccccc1` (mixture of isomers) [Compound 5d, N-(2-(4-((E/Z)-1-(4-Hydroxyphenyl)-2-phenylbut-1-enyl)phenoxy)ethyl)-3-(3,4,5-trimethoxyphenyl)-N-methylpropanamide], for which the concentration for half-maximal inhibition (IC50) was above 100 µM.

Turning to `CNCCOc1ccc(C(=C2CCCC2)c2ccc(O)cc2)cc1` [Compound 11a, 4-(Cyclopentylidene(4-(2-(methylamino)ethoxy)phenyl)methyl)phenol], the IC50 worked out at 3.09 µM.

Consider `CNCCOc1ccc(C(=C2CCCCC2)c2ccc(O)cc2)cc1` [Compound 11b, 4-(Cyclohexaneylidene(4-(2-(methylamino)ethoxy)phenyl)methyl)phenol], for which the IC50 was determined as 4.78 µM.

Take `COc1ccc(/C=C(/C(=O)N(C)CCOc2ccc(C(=C3CCCCC3)c3ccc(O)cc3)cc2)c2cc(OC)c(OC)c(OC)c2)cc1O` [Compound 13b, (E)-N-(2-(4-(Cyclohexaneylidene(4-hydroxyphenyl)methyl)phenoxy)ethyl)-3-(3-hydroxy-4-methoxyphenyl)-N-methyl-2-(3,4,5-trimethoxyphenyl)acrylamide]: the IC50 came to 2.01 µM.

As for `CCC(=C(c1ccccc1)c1ccc(OCCN(C)C(=O)CCC(=O)O)cc1)c1ccccc1` [Compound 14a, N-{2-[4-(1,2-Diphenylbut-1-enyl)phenoxy]ethyl}-N-methylsuccinamic acid], the IC50 is above 50 µM.

Staying with this assay, now noted: Homo sapiens, MCF7, 72 h, read-out: IC50 (μM), antiproliferative effects.
As to `CCC(=C(c1ccc(O)cc1)c1ccc(OCCN(C)C(=O)/C(=C/c2ccc(OC)c([N+](=O)[O-])c2)c2cc(OC)c(OC)c(OC)c2)cc1)c1ccccc1` (mixture of isomers) [Compound 3a, (E/Z)-N-(2-(4-((E)-1-(4-Hydroxyphenyl)-2-phenylbut-1-en-1-yl)phenoxy)ethyl)-3-(4-methoxy-3-nitro-phenyl)-N-methyl-2-(3,4,5-trimethoxyphenyl)acrylamide], the IC50 was above 50 µM.

As to `COc1ccc(/C=C(/C(=O)N(C)CCOc2ccc(C(=C3CCCC3)c3ccc(O)cc3)cc2)c2cc(OC)c(OC)c(OC)c2)cc1O` [Compound 13a, (E)-N-(2-(4-(Cyclopentylidene(4-hydroxyphenyl)methyl)phenoxy)ethyl)-3-(3-hydroxy-4-methoxyphenyl)-N-methyl-2-(3,4,5-trimethoxyphenyl)acrylamide], the 50% inhibitory concentration (IC50) came out at 1.38 µM.

The assay is the same for the next values; noted with them: Homo sapiens, MCF7, read-out: growth inhibition.
On to `COc1ccc(/C(=C\c2cc(OC)c(OC)c(OC)c2)C(N)=O)cc1` [Compound 3n, (E)-2-(4-Methoxyphenyl)-3-(3,4,5-trimethoxyphenyl)acrylamide], for which the inhibition at 1 µM amounted to 20%.

Turning to `CCN(CC)C(=O)/C(=C/c1ccc(OC)c(O)c1)c1cc(OC)c(OC)c(OC)c1` [Compound 3o, (E)-N,N-diethyl-3-(3-hydroxy-4-methoxyphenyl)-2-(3,4,5-trimethoxyphenyl) acrylamide], the inhibition at 1 µM came out at 16%.

The assay is the same for the next values; noted with them: Homo sapiens, MCF7; MCF-7, at 1 μM; read-out: growth inhibition.
For `COc1ccc(/C=C(/C(N)=O)c2cc(OC)c(OC)c(OC)c2)cc1` [Compound 3p, (E)-3-(4-Methoxyphenyl)-2-(3,4,5-trimethoxyphenyl)acrylamide], the inhibition at 1 µM is 60%.

For the compound `CCN(CC)C(=O)/C(=C/c1ccc(OC)cc1)c1cc(OC)c(OC)c(OC)c1` [Compound 3q, (E)-N,N-Diethyl-3-(4-methoxyphenyl)-2-(3,4,5-trimethoxyphenyl)acrylamide], the inhibition at 1 µM came to 25%.

Still in this assay, the particulars now being: MCF-7.
Regarding `CCC(=C(c1ccccc1)c1ccc(OCCN(C)C(=O)CCC(=O)O)cc1)c1ccccc1` [Compound 14a, N-{2-[4-(1,2-Diphenylbut-1-enyl)phenoxy]ethyl}-N-methylsuccinamic acid], the “antiproliferative activity (in words)” value is on record as “very low antiproliferative activity; also recorded: no significant antiproliferative activity”.

Still in this assay, the particulars now being: MCF-7, 72 h, Alamar Blue; read-out: IC50 (μM), antiproliferative effects.
`CCC(=C(c1ccc(O)cc1)c1ccc(OCCN(C)C(=O)/C(=C/c2cc(OC)c(O)c(OC)c2)c2cc(OC)c(OC)c(OC)c2)cc1)c1ccccc1` (mixture of isomers) [Compound 3j, (E/Z)-3-(4-Hydroxy-3,5-dimethoxyphenyl)-N-(2-(4-((Z)-1-(4-hydroxyphenyl)-2-phenylbut-1-en-1-yl)-phenoxy)ethyl)-N-methyl-2-(3,4,5-trimethoxyphenyl)acrylamide]: the IC50 came to 11.8 µM.

With `CC/C(=C(\c1ccc(O)cc1)c1ccc(OCCN(C)C(=O)C=Cc2ccc(OC)c(O)c2)cc1)c1ccccc1` (mixture of isomers) [Compound 5a, (E/Z)-3-(3-Hydroxy-4-methoxyphenyl)-N-(2-(4-((Z)-1-(4-hydroxyphenyl)-2-phenylbut-1-en-1-yl)phenoxy)-ethyl)-N-methylacrylamide], the IC50 came out at 51.3 µM.

Consider `CCC(=C(c1ccc(O)cc1)c1ccc(OCCN(C)C(=O)CCc2ccc(OC)c(O)c2)cc1)c1ccccc1` (mixture of isomers) [Compound 5b, (E/Z)-3-(3-hydroxy-4-methoxyphenyl)-N-(2-(4-(1-(4-hydroxyphenyl)-2-phenylbut-1-en-1-yl)phenoxy)ethyl)-N-methylpropanamide], for which the IC50 was 46.7 µM and 46.8 µM.

Turning to `CCC(=C(c1ccc(O)cc1)c1ccc(OCCN(C)C(=O)/C=C/c2cc(OC)c(OC)c(OC)c2)cc1)c1ccccc1` (mixture of isomers) [Compound 5c, (E/Z)-N-(2-(4-((Z)-1-(4-Hydroxyphenyl)-2-phenylbut-1-en-1-yl)phenoxy)ethyl)-N-methyl-3-(3,4,5-tri-methoxyphenyl)acrylamide], the IC50 is above 50 µM.

As to `CCC(=C(c1ccc(O)cc1)c1ccc(OCCN(C)C(=O)CCc2cc(OC)c(OC)c(OC)c2)cc1)c1ccccc1` (mixture of isomers) [Compound 5d, N-(2-(4-((E/Z)-1-(4-Hydroxyphenyl)-2-phenylbut-1-enyl)phenoxy)ethyl)-3-(3,4,5-trimethoxyphenyl)-N-methylpropanamide], the IC50 was above 50 µM.
